Data as given in patent US10156521B2, “Red fluorescent aldehyde dehydrogenase (ALDH) substrate” (THE JOHNS HOPKINS UNIVERSITY, priority 2013, dated 2018).

Assay: Excitation and emission profiles by spectrofluorophotometer
Type: physicochemical
Conditions: 100% ethanol
Method: FIGS. 2a-2c show the excitation and emission profiles of candidate ALDH substrates. (a) AldeRed 493 aldehyde diethyl acetal, (b) AldeRed 588 aldehyde diethyl acetal, (c) AldeRed 659 aldehyde diethyl acetal. All the compounds were dissolved in 100% ethanol and both excitation and emission profiles were measured in 100% ethanol. The emission spectrum was measured with excitation at 493 nm for AldeRed 493 aldehyde diethyl acetal, at 560 nm for AldeRed 588, and at 650 nm for AldeRed 659-A. Blue line: excitation spectrum; red line: emission spectrum;
Reagents and Analyses. BODIPY® 576/589 succinimidyl ester and BODIPY® 650/665 succinimidyl ester were purchased from Life Technologies Inc., (Grand Island, N.Y.). (E)-4-(4-(dimethylamino)styryl)-1-(3-isothiocyanatopropyl)pyridin-1-ium chloride 1 was synthesized analogously to the previously reported di-butyl analog. Hassner, A., et al., J Org. Chem. 49, 2546-2551 (1984). Chemicals and solvents for synthesis and high-performance liquid chromatography (HPLC) were acquired from Sigma-Aldrich (Milwaukee, Wis.) or Fisher Scientific (Pittsburgh, Pa.), and used without further purification. HPLC was performed on an Agilent Prostar System equipped with a 325 Variable wavelength detector and controlled by Galaxie Software using a Phenomenex 4.6×250 mm Luna C18, 10 micron column. AldeRed 493 aldehyde diethyl acetal (FIGS. 14a-14b) and AldeRed 493-A (FIGS. 14c-14d) were chromatographed using Method 1. AldeRed 588 aldehyde diethyl acetal (FIGS. 15a-15b), AldeRed 588-A (FIGS. 15c-15d), AldeRed 659 aldehyde diethyl acetal (FIGS. 16a-16b), AldeRed 659-A (FIGS. 16c-16d) were chromatographed using Method 2. Method 1: Solvent A: 100% water; Solvent B: 100% methanol; 0-5 min 100% A, 5-25 min linear gradient from 100% A to 100% B, 25-30 min 100% B, 30-35 min linear gradient from 100% B to 100% A, 35-38 min 100% A, 2 mL/min. Method 2: Solvent A: 100% water; Solvent B: 100% acetonitrile; 0-20 min linear gradient from 90% A/10% B to 10% A/90% B; 20-25 min 10% A/90% B, 25-30 min linear gradient from 10% A/90% B to 90% A/10% B, 2 mL/min. ^1H-NMR spectra were obtained on a Bruker Avance 400 MHz Spectrometer. High resolution mass spectra were obtained by the University of Notre Dame Mass Spectrometry & Proteomics Facility (Notre Dame, Ind.) using ESI either by direct infusion on a Bruker micrOTOF-II or by LC elution via an ultra-high pressure Dionex® RSLC with C18 column coupled with a Bruker micrOTOF-Q II. The excitation and emission profiles of synthesized products were measured using a spectrofluorophotometer (Shimadzu, RF-5301pc, Columbia, Md.).
Three representative substrates of ALDH containing fluorophores that emit in the red region of the spectrum were synthesized (FIG. 1). […]

Maximum emission wavelength [nm] | Maximum excitation wavelength [nm] | Structure (SMILES)
599 | 588 | CCOC(CNC(=O)CCc1ccc2n1[B-](F)(F)[N+]1=C(c3ccc[nH]3)C=CC1=C2)OCC [compound 5]
590 | 493 | CCOC(CNC(=S)NCCC[n+]1ccc(C=Cc2ccc(N(C)C)cc2)cc1)OCC.[Cl-] [compound 4]
